In experiment [1] the test system is Mixed planktonic populations of P. aeruginosa, E. coli, S. epidermidis, and S. mutans. Kind of experiment: Microbial population shift assay. The class given is cell-based. To be noted: 10 μM peptide, 24 h. The method, then: Peptide (10 μM) or mock-treatment (1× PBS) was then added and samples were incubated at 37° C. for 24 h under anaerobic conditions (80% N2, 15% CO2, 5% H2). […] Plates were then incubated 37° C. under aerobic conditions (TH plates were incubated anaerobically) and colonies counted after 24 h to determine survivors. […] Gram stains and direct microscopic observation (from select isolated colonies) were undertaken to confirm species identity (data not shown). The detection limit of the assay was 200 cfu/mL.

Experiment [2] relates to S. mutans. Briefly: Post-antibiotic effect assay (growth retardation after 10 min exposure). As to conditions: S. mutans monoculture, peptide 10 min, then fresh medium. The class given is cell-based, Streptococcus mutans. The method, then:
The activity and selectivity of MH-STAMPs after a 10 min incubation was determined by growth retardation experiments against targeted and untargeted bacteria in monocultures, as described previously (Id.). Cells from overnight cultures were diluted to ˜5×10^6 cfu/mL in MH (or TH with 1% sucrose for S. mutans), normalized by OD600 0.05-0.1 and seeded to 96-well plates. Cultures were then grown under the appropriate conditions for 2 h (3 h for S. mutans) prior to the addition of peptides for 10 min. Plates were then centrifuged at 3000×g for 5 min, the supernatants discarded, fresh medium returned (MH or TH without sucrose for S. mutans), and incubation resumed. Bacterial growth after treatment was then monitored over time by OD600.

A further experiment deals with C. difficile. Kind of experiment: MIC (broth microdilution). It counts as cell-based, Clostridium difficile. How it is done: (§1) Typically, the in vitro antimicrobial activity of antimicrobial agents is tested using standard NCCLS bacterial inhibition assays, or MIC tests (see, National Committee on Clinical Laboratory Standards “Performance Standards for Antimicrobial Susceptibility Testing,” NCCLS Document M100-S5 Vol. 14, No. 16, December 1994; “Methods for dilution antimicrobial susceptibility test for bacteria that grow aerobically-Third Edition,” Approved Standard M7-A3, National Committee for Clinical Standards, Villanova, Pa.).
(§2) Briefly, ˜1×10^5 cfu/mL bacteria were diluted in TH (S. mutans), or Mueller-Hinton (MH) broth (all other organisms) and distributed to 96-well plates. Serially-diluted (2-fold) peptides were then added and the plates incubated at 37° C. for 18-24 h. […] All experiments were conducted 10 times.

Another experiment concerns A. baumannii. Kind of experiment: MIC (broth microdilution). It counts as cell-based, Acinetobacter baumannii. The method, then:
as §1, §2

The next experiment concerns microorganisms. Briefly: Peptides having multiple activities (targeting/binding, antimicrobial, growth or phenotype altering). The text has this:
In certain embodiments, peptides described herein can have multiple activities. Thus for example, a peptide can have both binding/targeting activity and antimicrobial activity. Such peptides can be used, e.g., in a chimeric construct, for any or all of these properties. Thus, for example, a peptide designated “B” in Table 8 can be used as a targeting peptide. If it is also designated G or M it can also be used for antimicrobial activity.

Experiment [3] relates to S. pneumoniae. Kind of experiment: Kill or inhibit growth/proliferation; morphology, biofilm and growth disruption (Tables 5, 6). The class given is cell-based, Streptococcus pneumoniae. Set-up: key: A: Peptide aggregates; B: Less hyphal formation; Clumps; Diffuse clumps and small polyps; F: Diffuse growth; H: Thin; I: Growth inhibition; Microcolony formation; Rippled; Small polyps; Thick; W: Halo formation on top, microlonies on bottom.

Experiment [4] deals with C. albicans. The description is as above. It counts as cell-based, Candida albicans. Further details: key: A: Peptide aggregates; B: Less hyphal formation; Clumps; Diffuse clumps and small polyps; F: Diffuse growth; H: Thin; I: Growth inhibition; Microcolony formation; Rippled; Small polyps; Thick; W: Halo formation on top, microlonies on bottom.
The subject of the next experiment is T. rubrum. Briefly: MIC (broth microdilution). The class given is cell-based, Trichophyton rubrum. The method, then:
as §1, §2

Experiment [5] has as its system microorganisms (e.g., bacteria, yeasts, fungi). Briefly: Targeting peptide binding to target microorganisms (Table 3). As to conditions: microorganism(s) the targeting peptide binds, preferably 1x PBS.
For experiment [6], the system named is S. epidermidis. Kind of experiment: Kill or inhibit growth/proliferation; morphology, biofilm and growth disruption (Tables 5, 6). It counts as cell-based, Staphylococcus epidermidis. Further details: key: A: Peptide aggregates; B: Less hyphal formation; Clumps; Diffuse clumps and small polyps; F: Diffuse growth; H: Thin; I: Growth inhibition; Microcolony formation; Rippled; Small polyps; Thick; W: Halo formation on top, microlonies on bottom.

Experiment [7] has as its system B. subtilis. The experiment is described as above. It counts as cell-based, Bacillus subtilis. Further details: key: A: Peptide aggregates; B: Less hyphal formation; Clumps; Diffuse clumps and small polyps; F: Diffuse growth; H: Thin; I: Growth inhibition; Microcolony formation; Rippled; Small polyps; Thick; W: Halo formation on top, microlonies on bottom.
Experiment [8] concerns C. albicans. Briefly: MIC (broth microdilution). It counts as cell-based, Candida albicans. The method, then: as §1, §2
For experiment [9], the system named is B. subtilis. Briefly: MIC (broth microdilution). It counts as cell-based, Bacillus subtilis. Put shortly: (§3)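 ~1×10^5 cfu/mL inoculum, MH broth; peptides 2-fold serial dilution; 37° C., 18-24 h; n=10; NCCLS M7-A3 method.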
Experiment [10] relates to BHK-21 (ATCC CRL-10) fibroblasts. Kind of experiment: Cytotoxicity, Promega CellTiterGlo assay. It counts as cell-based, hamster. As to conditions: BHK, at either 5 min or 24 h, with or without light. How it is done: Streptococcus oralis ATCC 10557, Streptococcus gordonii (Challis), Streptococcus sanguinis (NY101), Streptococcus mitis ATCC 903, Streptococcus salivarius ATCC 13419 and S. mutans wild-type UA140 and JM11 (spectinomycin-resistant) strains were grown in Todd-Hewitt (TH) broth 37° C. in an anaerobic atmosphere of 80% N2, 10% CO2, and 10% H2. BHK-21 (ATCC CRL-10) fibroblasts were propagated in DMEM with 10% FBS, 1 mM sodium pyruvate, 100 units/mL penicillin G, and 100 μg/mL streptomycin at 37° C. with 5% CO2. Cells were detached with 0.25% trypsin and subcultured as recommended by the supplier.
The effect of RB and C16-RB on […] fibroblasts was ascertained by utilizing the Promega CellTiterGlo assay, as described by the manufacturer. Briefly, fibroblasts were grown to confluence, detached, and seeded to ˜5,000 cells per well in a 96-well opaque walled, clear bottom 96-well plate (Nunc International). For long-term dark toxicity, cells were allowed to attach to for 18 h before the culture medium was replaced with medium plus serially-diluted RB or C16-RB (200 μM to 390 nM) or medium alone. After 18-24 h, equal volume Cell Titer Glo reagent was added to each well and mixed. Luciferace activity was then quantified to measure cell viability (Varian Fluorometer in Biolumenescence mode). To measure cytotoxicity after RB or C16-RB light exposure, cells were seeded at ˜10,000 cells per well and allowed to attach for 4 h. Cell growth medium was then replaced with RB or C16-RB containing medium, prior to exposure (a single well at a time) with blue light (400 mW/cm^2) suspended ˜3 cm from the well bottom. After exposure, cultures were disrupted with Cell Titer Glo and luciferase activity quantitated as above.

The test system of experiment [11] is S. mutans. The class given is cell-based, Streptococcus mutans. To be noted: S. mutans.
The test system of the next experiment is E. coli. The class given is cell-based, Escherichia coli. As to conditions: E. coli. How it is done:
as §1, §2

Experiment [12] concerns S. mutans. Briefly: Kill or inhibit growth/proliferation; morphology, biofilm and growth disruption (Tables 5, 6). It counts as cell-based, Streptococcus mutans. Set-up: key: A: Peptide aggregates; B: Less hyphal formation; Clumps; Diffuse clumps and small polyps; F: Diffuse growth; H: Thin; I: Growth inhibition; Microcolony formation; Rippled; Small polyps; Thick; W: Halo formation on top, microlonies on bottom.

For experiment [13], the system named is S. pneumoniae. Kind of experiment: MIC (broth microdilution). It counts as cell-based, Streptococcus pneumoniae. Put shortly: as §3
Experiment [14] concerns MRSA. Briefly: Kill or inhibit growth/proliferation; morphology, biofilm and growth disruption (Tables 5, 6). The class given is cell-based, Methicillin-resistant Staphylococcus aureus. Further details: key: A: Peptide aggregates; B: Less hyphal formation; Clumps; Diffuse clumps and small polyps; F: Diffuse growth; H: Thin; I: Growth inhibition; Microcolony formation; Rippled; Small polyps; Thick; W: Halo formation on top, microlonies on bottom.

For experiment [15], the system named is S. epidermidis. It counts as cell-based, Staphylococcus epidermidis. As to conditions: S. epidermidis. How it is done: as §1, §2
For experiment [16], the system named is MRSA. Kind of experiment: MIC (broth microdilution). It counts as cell-based, Methicillin-resistant Staphylococcus aureus. A digest of the protocol: as §3
In experiment [17] the test system is S. mutans. Briefly: Anti-S. mutans STAMP activity in vitro, also in formulations. The class given is cell-based, Streptococcus mutans.

“Also recorded” adds a separate entry of the source. Bridge positions count the residues as written; N and C are the ends. Square brackets hold non-standard residues; d marks the D form. Ends that are not written are not given here. Peptide text beside a SMILES is read from it. I, II: the chains in the order shown. Aoc = NCCCCCCCC(=O)O Bounds are passed on as bounds.

The record followed here is US20110039762A1, “TARGETED ANTIMICROBIAL MOIETIES” (C3 JIAN, INC., priority 2009, published 2011).

`CC[C@H](C)[C@H](NC(=O)[C@H](Cc1ccccc1)NC(=O)CCCCCCCNC(=O)[C@H](CCCCNC(=O)CNC(=O)CNC(=O)CNC(=O)[C@H](C)NC(=O)[C@H](CCC(=O)O)NC(=O)[C@H](CC(N)=O)NC(=O)[C@H](C)NC(=O)[C@H](C)NC(=O)[C@@H](N)CC(=O)O)NC(=O)CNC(=O)CNC(=O)CNC(=O)[C@H](CCCNC(=N)N)NC(=O)[C@H](CC(N)=O)NC(=O)[C@H](CC(C)C)NC(=O)[C@H](Cc1ccccc1)NC(=O)[C@H](CCCNC(=N)N)NC(=O)[C@H](Cc1ccccc1)NC(=O)[C@H](Cc1ccccc1)NC(=O)[C@@H](NC(C)=O)[C@@H](C)O)C(=O)N[C@@H](CCCNC(=N)N)C(=O)N[C@@H](CCCCN)C(=O)N[C@@H](Cc1ccccc1)C(=O)N[C@@H](CC(C)C)C(=O)N[C@@H](CCCCN)C(=O)N[C@@H](CCCCN)C(=O)N[C@@H](Cc1c[nH]c2ccccc12)C(=O)N[C@@H](CC(C)C)C(=O)N[C@@H](CC(C)C)C(N)=O` [M8(BL)-20] (I: Ac-TFFRFLNRGGGK[Aoc]FIRKFLKKWLL-NH2 / II: H-DAANEAGGG; amide I:12-II:C): the “recoverable (surviving) cfu/mL” value is “not affected or affected to a lesser extent” in experiment [1] (E. coli in mixed culture), “not affected or affected to a lesser extent” in [1] (P. aeruginosa in mixed culture), “not affected or affected to a lesser extent” in [1] (S. epidermidis in mixed culture) and “greatly reduced compared to input cfu/mL” in [1] (S. mutans in mixed culture). Further, the “bacterial growth (OD600) after treatment” value in the experiment with S. mutans [2] is given as “effectively retarded”.
In the case of KNKKQTDILEKVKEILDKKKKTKSVGQKLY [PF-538], the MIC entry in the experiment on C. difficile is given as “C. difficile, 25 μM”; against A. baumannii, “A. baumannii, 25 μM”. Moreover, the Activities result in the experiment on microorganisms is “G M”. Besides, the “Organism, effect” value in the experiment with S. pneumoniae [3] was “S. pneumoniae (H)”.
As for “MKRRRCNWCGKLFYLEEKSKEAYCCKECRKKAKKVKK [PF-307]”, the “Organism, effect” value in the experiment on C. albicans [4] is “C. albicans (B)”; in the experiment with S. epidermidis [6], “S. epidermidis (T)”; in the experiment on B. subtilis [7], “B. subtilis (H)”. Moreover, the MIC entry with T. rubrum is reported as “T. rubrum, 50 μM”; against C. albicans [8] it was “C. albicans, 50 μM”; against B. subtilis [9], “B. subtilis, 50 μM”. The “Target(s)” value in experiment [5] (binding in aqueous buffers depending on peptide solubility) was “S. epidermidis; also recorded: B. subtilis; also recorded: B. fragilis; also recorded: C. difficile”. The Activities entry with microorganisms was “G B M”.
As for Melittin B, in [10], the IC50 was less than 1560 nM.
Turning to “FESKILNASKELDKEKKVNTALSFNSHQDFAKAYQNGKI [PF-606]”, the “Organism, effect” value in the experiment with C. albicans [4] is reported as “C. albicans (B)”; in the experiment with S. mutans [12] it was “S. mutans (I)”; in the experiment with S. epidermidis [6], “S. epidermidis (I)”; in the experiment with MRSA [14], “MRSA (I)”; in the experiment with S. pneumoniae [3], “S. pneumoniae (H)”. For the same molecule, the MIC result against S. mutans [11] is reported as “S. mutans, 50 μM”; with E. coli, “E. coli, 50 μM”; in the experiment with S. pneumoniae [13] it was “S. pneumoniae, 50 μM”; in the experiment on S. epidermidis [15], “S. epidermidis, 50 μM”; against MRSA [16], “MRSA , 50 μM”. The Activities result with microorganisms is on record as “G M”.
Regarding FELVDWLETNLGKILKSKSA-NH2 [PF-522], in the experiment on C. difficile, the MIC result is reported as “C. difficile, 25 μM”. In addition, the “Target(s)” value in experiment [5] (peptide binding conducted in aqueous buffers varied by peptide solubility) is reported as “S. epidermidis; also recorded: E. coli; also recorded: P. aeruginosa; also recorded: S. pneumoniae; also recorded: E. faecalis”. Besides, the Activities entry in the experiment with microorganisms is given as “G B M”. Further, in the experiment with S. pneumoniae [3], the “Organism, effect” value is given as “S. pneumoniae (H)”.
For “TFFRLFNRSFTQALGKGGGKNLRIIRKGIHIIKKY* (not fully specified (C-terminus); printed as TFFRLFNRSFTQALGKGGGKNLRIIRKGIHIIKKY*) [Peptide C16G2]”, in the experiment on S. mutans [17] (PBS formulations 0.5× to about 2.5× PBS), the “PBS strength at activity optimum” value is given as “about 1 × PBS”. Also, the anti-S. mutans activity result in the experiment with S. mutans [17] (phosphate buffered saline (PBS) formulation) is “active”; in the experiment with S. mutans [17] (water-based salt-free buffers and nanoemulsions) it was “substantially inactive”.
